# In patent publication US20010039297A1, “COMPOSITIONS AND METHOD FOR IMPROVING INSULIN SENSIVITY AND GLUCOSE METABOLISM IN INDIVIDUALS WITH IMPAIRED FASTING GLUCOSE OR IMPAIRED GLUCOSE TOLERANCE” (Insmed Pharmaceuticals, Inc., priority 1998, published 2001):
# Columns and labels:
# Format in all cases: in vivo, human
# obese men = experiment: tolbutamide-modified frequently sampled intravenous glucose tolerance test (FSIGTT), insulin sensitivity index by minimal model, clinical study; settings: single oral dose 300-1200 mg, fasted, 2 hours before FSIGTT
# Text: The third method of determining insulin sensitivity involves frequently collecting blood samples for glucose and insulin during an intravenous glucose tolerance test, and analyzing the glucose and insulin dynamics using a minimal mathematical model developed by Bergman (Bergman et. al., J. Clin. Invest. 68:1456-1467 (1981)). This test can be modified by the injection of tolbutamide or exogenous insulin to boost the insulin response and improve the correlation with the euglycemic clamp. The FSIGTT provides an accessible way to determine the insulin sensitivity index (S1). The more insulin insensitive a subject is, the lower the calculated S1. As insulin sensitivity is improved, the S1 value is increased—thus a higher S1 value corresponds to greater insulin sensitivity.
# A clinical study of D-chiro-inositol was performed in obese men. This was a three phase, double blind, single oral dose crossover study with subjects receiving either D-chiro-inositol (300-1200 mg) or placebo in a randomized crossover fashion. Treatments were administered to subjects in a fasted state 2 hours before the tolbutamide-modified frequently sampled intravenous glucose tolerance test (FSIGTT) began.
# The insulin sensitivity index (S1) was derived using the minimal model analysis of plasma glucose and insulin concentrations sampled during a full tolbutamide-modified FSIGTT.
# [1] = system: obese men and women with abnormal glucose tolerance; experiment: oral glucose tolerance test before and after treatment, clinical study, subjects with abnormal glucose tolerance; settings: 1200 mg/day for 7 to 14 days
# Description: (§1) Impaired glucose tolerance, as defined by the World Health Organization, is determined by the administration of a standard oral glucose tolerance test (OGTT) (World Health Org., Diabetes Mellitus, Tech. Rep. Ser., no. 727 (1985)). During an OGTT, a measured amount of glucose (75 grams) is given to a fasted individual and blood glucose levels are measured every 30 minutes, usually for 2 or 3 hours. In a individual with normal glucose tolerance, the blood glucose values will rise during the first part of the test and then rapidly return to basal levels. In an IGT individual the post prandial glucose levels will rise above the normal range, producing a 2-hour glucose value of 140-199 mg/dL, and return to basal levels at a slow rate.
# (§2) A clinical study utilizing D-chiro-inositol was performed in obese men and women with normal and abnormal glucose tolerance. Eighteen volunteers received D-chiro-inositol (1200 mg/day) for 7 to 14 days. An oral glucose tolerance test was performed at the beginning of the study, prior to treatment, and at the end of the study, after D-chiro-inositol treatment.
# [2] = system: obese men and women with normal glucose tolerance; experiment: oral glucose tolerance test before and after treatment, clinical study, subjects with normal glucose tolerance; settings: eleven volunteers with normal glucose response; 1200 mg/day for 7 to 14 days
# Description: as §1, §2
structure (smiles),measurement,setting,value
OC1C(O)C(O)C(O)C(O)C1O [D-chiro-inositol],mean increase in insulin sensitivity,obese men,61%
same,subjects demonstrating an increase in insulin sensitivity (S1),obese men; out of 9 subjects,6 out of 9
same,90 and 120 minute glucose values in OGTT,"[1]; abnormal glucose tolerant subjects, p<0.05",statistically significant reduction
same,glucose response to the glucose load (OGTT),"[1]; seven subjects with abnormal, elevated glucose response",significantly improved
same,glucose values during OGTT,[2],not modified
